Measurements from EP4800013A1, “PARG INHIBITOR” (Shanghai Qilu Pharmaceutical Research and Development …, priority 2023, dated 2025).
Like-named read-outs stand apart in the source and are kept apart here.

Experiments:
[1] = target: T1, PARG (Homo sapiens, UniProt Q86W56); test: Enzymatic inhibitory activity against PARG, HTRF assay; assay type: biochemical; conditions: HTRF; PARylated PARP1 protein as substrate; 60 minutes at room temperature; read-out: IC50 against PARG enzyme
T1 construct: made in house
T1 sequence (Q86W56 whole entry): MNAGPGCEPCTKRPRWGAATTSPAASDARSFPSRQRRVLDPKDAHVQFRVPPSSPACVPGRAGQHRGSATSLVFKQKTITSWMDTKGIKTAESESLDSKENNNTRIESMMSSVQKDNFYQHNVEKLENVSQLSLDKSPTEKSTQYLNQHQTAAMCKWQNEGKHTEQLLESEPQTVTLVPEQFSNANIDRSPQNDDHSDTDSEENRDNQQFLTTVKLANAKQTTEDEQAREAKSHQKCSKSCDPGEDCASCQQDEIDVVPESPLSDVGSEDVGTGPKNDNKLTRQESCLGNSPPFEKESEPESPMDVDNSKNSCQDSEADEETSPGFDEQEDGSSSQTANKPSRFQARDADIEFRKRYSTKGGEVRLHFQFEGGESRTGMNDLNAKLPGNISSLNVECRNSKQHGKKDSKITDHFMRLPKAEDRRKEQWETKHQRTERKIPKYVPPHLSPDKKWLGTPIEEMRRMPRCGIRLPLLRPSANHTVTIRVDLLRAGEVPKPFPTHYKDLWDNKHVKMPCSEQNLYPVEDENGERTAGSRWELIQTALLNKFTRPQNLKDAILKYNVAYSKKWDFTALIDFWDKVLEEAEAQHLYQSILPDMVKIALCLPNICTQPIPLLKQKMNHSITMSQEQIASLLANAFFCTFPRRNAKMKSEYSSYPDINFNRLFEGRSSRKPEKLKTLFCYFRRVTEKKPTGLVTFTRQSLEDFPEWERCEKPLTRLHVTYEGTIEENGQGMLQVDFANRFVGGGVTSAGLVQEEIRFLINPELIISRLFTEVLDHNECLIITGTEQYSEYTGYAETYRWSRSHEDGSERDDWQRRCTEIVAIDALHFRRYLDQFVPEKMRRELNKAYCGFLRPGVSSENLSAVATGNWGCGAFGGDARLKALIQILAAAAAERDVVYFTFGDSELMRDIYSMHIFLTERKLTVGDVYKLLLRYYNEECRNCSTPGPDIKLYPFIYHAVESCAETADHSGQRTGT
Outline: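 Purified PARG pre-incubated with compounds (top 10 µM, 3- to 5-fold dilutions, duplicates) 15 min at room temperature, then PARylated PARP1 substrate added for 60 min in Tris pH 7.4 buffer with DTT, EDTA/EGTA, KCl. HTRF (His-Tb/SA-XL665) read-out; IC50 by four-parameter logistic fit, normalised to DMSO and control-inhibitor wells.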

[2] = system: KURAMOCHI cells; test: Inhibition of proliferation of KURAMOCHI cells (CellTiter-Glo, intracellular ATP); assay type: cell-based; conditions: 168 h, incubated for 7 days, read-out: IC50 against KURAMOCHI cells
Outline: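 KURAMOCHI cells seeded at 4000/well, incubated overnight, then treated with 9-point 1:4 compound series from 10 µM (0.5% DMSO) for 7 days at 37°C, 5% CO2. Viability read by CellTiter-Glo luminescence; inhibition normalised to medium-only (100%) and DMSO (0%) controls, IC50 from variable-slope four-parameter fit.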

[3] = system: KURAMOCHI ovarian cancer xenograft model; test: In vivo efficacy study in KURAMOCHI ovarian cancer xenograft model; conditions: for TGI (%) / Tumor volume (mm^3): PO; for Tumor volume (mm^3): Mean ± SEM
Excerpt: (§1) NOD SCID mice, female, SPF grade, purchased from Beijing Anikeepter Biotech Co., Ltd.
KURAMOCHI cells, purchased from JCRB.
(§2) The culture medium was changed weekly. […] Tumor cells in the logarithmic growth phase were used for in vivo implantation.
(§3) A total of 35 mice were inoculated: 35 mice for the efficacy study; 15 mice for the PK/PD study; 10 mice remaining after grouping. When the tumor volume reached approximately 150 to 200 mm^3, the mice were grouped for dosing to initiate the efficacy study. Specifically, they were divided into 7 groups, with 5 mice per group. The remaining animals were grouped for dosing when the tumor volume reached approximately 250 mm^3.
(§4) b. Treatment was initiated after grouping, with a dosing volume of 10 µL/g body weight via oral administration (PO). Animals were weighed daily before dosing and administered once daily for 21 consecutive days. Tumor diameters were measured twice weekly. c. Tumor volume (TV) was measured twice weekly to monitor changes in tumor size and growth rate. Tumor volume was calculated as: V = 1/2 × a × b^2, where a and b represent tumor length and tumor width, respectively. The growth inhibitory effect of compounds on tumor tissue was evaluated using tumor growth inhibition (TGI (%)). […] Data for both the treatment group and the negative control group were collected on the same day. d. The mice were weighed during tumor measurements. The relationship between changes in body weight and time of treatment was recorded. The survival and health status of the mice, including general conditions such as activity level and food intake during the dosing period, were also observed. […] Treatment was resumed when the body weight recovered to within 10% of baseline. […] Nutritional gel supplementation was provided during treatment discontinuation. e. At the study endpoint, the mice were euthanized.

[4] = system: KURAMOCHI ovarian cancer xenograft model; conditions: mouse, in vivo, po
Excerpt: as §1
KURAMOCHI cells, purchased from JCRB.
as §2, §3, §4

[5] = KURAMOCHI xenograft, oral administration

SMILES | IC50 [1] | IC50 [2] | tolerability in mice (in words) [3, 5] | tumor growth inhibition (in words) [3, 5] | TGI (%) ([3]; 30 mg/kg, QD × 16 days) | Tumor volume (mm^3) ([3]; 30 mg/kg, QD × 16 days) | tolerability in mice (in words) [4] | TGI (%) ([3]; 30 mg/kg, BID × 16 days) | Tumor volume (mm^3) ([3]; 30 mg/kg, BID × 16 days) | TGI (%) ([3]; 100 mg/kg, QD × 16 days) | Tumor volume (mm^3) ([3]; 100 mg/kg, QD × 16 days)
C[C@H]1CN(c2cc(S(=O)(=O)NC3(C)CC3)cc3c2n2ncnc2n3-c2nnc(C(F)F)s2)C[C@H](C)N1 [Compound 065M] | 1.4 nM | 3 nM | good tolerability | significantly inhibited tumor growth | 127% | 62 ± 6 mm^3 |  |  |  |  | 
C[C@H]1CN(c2cc(S(=O)(=O)NC3(C)CC3)cc3c2nc([C@@H]2CCCO2)n3-c2nnc(C(F)F)s2)C[C@H](C)N1 [Compound 077B2] | 1.6 nM | 3 nM |  | significantly inhibited tumor growth |  |  | good tolerability | 127% | 61 ± 9 mm^3 | 127% | 57 ± 10 mm^3
